Publication PMC9399405, “CD8 T cell function and cross-reactivity explored by stepwise increased peptide-HLA versus TCR affinity” (Frontiers in Immunology, 2022)

System: HLA-A2
Experiment: Blue peptide (Cy5-labeled HBVc) kinetic and isotherm determination
Format: binding, human
Experimental: In short, for kon measurements on T2 (HLA-A2^pos) and C1R-A3 (HLA-A2^neg) cells, baseline Cy5 cell auto-fluorescence was recorded for 30s with an LSRII instrument. Titrated amounts of Cy5-labeled HBVc blue peptide (from 1 pM to 1 uM final concentration) were then added to the tube and association of the blue peptide to HLA-A2 was recorded for 5 minutes. For koff dissociation assays, 2x10^6 HLA-A2^pos (T2) and HLA-A2^neg (C1R-A3) cells were stained with 1 μM blue peptide and incubated for 1h in the dark. After washing, baseline Cy5 staining was recorded for 30s, before adding excess of FACS buffer and recording fluorescence intensity (gMFI) for 1h under temperature control. Additionally, isotherm titration experiments were performed to validate the value of the blue peptide dissociation equilibrium constant KD. Cells were stained with titrated amounts of the blue peptide (from 1 pM to 1 uM) for 1h at 4°C or 37°C. After washing, Cy5 gMFI was recorded on an LSRII instrument to determine concentration-associated maximal staining at equilibrium conditions (n = 5). All kinetic and isotherm analyses were done with the corresponding best fit equations using Prism software (GraphPad, v.9.1.1) and correction of non-specific staining values found on control HLA-A2^neg cells (nonlinear regression for kon = association kinetics - one conc. of ligand, for koff = dissociation/one phase exponential decay and for KD = one site - total and nonspecific binding).

[1] = HLA-A2pos and HLA-A2neg cells in parallel, flow cytometry

FLPSDC*-(Cy5)-FPSV [blue peptide]
peptide:HLA association kon [1]: 23000 M⁻¹ s⁻¹
peptide:HLA dissociation koff [1]: 0.0012 s⁻¹
Kd (T2 (HLA-A2pos) vs C1R-A3 (HLA-A2neg) cells, isotherm titration 1 pM to 1 uM, 1h, n = 5, read-out: equilibrium dissociation constant KD for HLA-A2): 52.6 nM
